# Laboratory results published in patent publication US20130096107A1, “USE OF AMINODIHYDROTHIAZINES FOR THE TREATMENT OR PREVENTION OF DIABETES” (Hoffmann-La Roche Inc., priority 2009, published 2013).
# Entries after “also recorded” stand apart in the source; their conditions may differ.
# How the values were obtained:
# [1] = test system: BACE2 (Tmem27 cleavage) in isolated human pancreatic islets; settings: 200 nM, 72 h, islets from two human donors
# Method: Freshly isolated human islets from two different donors (male, 51 years, BMI: 27.5 kg/m2; […], BMI: 22.2 kg/m2; circa 3000 islets per donor) were obtained from Dr. D. Bosco (Cell Isolation and Transplantation Center, Department of Surgery, Geneva, Switzerland) and maintained in CMRL-1066 (Invitrogen) at 5.6 mmol/l glucose supplemented with 10% FCS, 100 U/ml penicillin, 100 μg/ml streptomycin and 100 μg/ml gentamycin (Sigma) for 2 days before experiments. The present investigation was approved by the institutional ethics committee. […] Islets were collected by centrifugation and total proteins were extracted using CELYA lysis buffer CLB1 (Cat*9000, Zeptosens) following the manufacturer's protocol.
# Total islet proteins (10 μg) were fractionated by NuPAGE 4-12% Bis-TrisGel (Cat*NP0321Box, Invitrogen) and transferred to nitrocellulose using iBlot system (Cat*IB3010-01, Invitrogen).
# pancreas of ZDF rats = test: Assessment of β-cell function by in situ pancreas perfusion (glucose-stimulated insulin secretion); type: in vivo, rat
# Method: (§1) Body weight and food intake were monitored daily. Blood glucose was measured weekly in all rats. After 3 weeks of treatment an oGTT was performed on 6 overnight fasted rats per groups. At about week 4 and after anesthesia, 2 to 3 ZDF rats per day and per group underwent pancreas surgery and in-situ pancreas perfusion with low/high glucose conditions. 120 eluted fractions per rat were collected for glucose and insulin quantification.
# Rats were anesthetized (Temgesic (0.1 ml/100 g) first, then anesthetic cocktail: Ketamine (77 mg/kg), Xylazine (11 mg/kg), i.p. injection, volume 2 ml/kg). Pancreas was surgically isolated from other connecting organs and from nerves and veins and artery afferences and efferences, keeping access to abdominal aorta and portal vein which are both cannulated. Once surgery was done, rats were placed into a temperature controlled box (37° C.) and pancreata were connected to infusion pumps via abdominal aorta.
# The glucose-stimulated insulin secretion (GSIS) was obtained by perfusing pancreata with Krebs-Ringer buffer containing low/high glucose concentration as described into protocol designed in FIG. 7. Basically, pancreata were first perfused with freshly prepared Krebs-Ringer solution (5 ml/min) containing low glucose concentration (2.8 mM) for about 30 minutes, stabilizing basal insulin secretion. Then, the first stimulation with high glucose concentration solution (16.7 mM) was given to sensitize the pancreata, leading to modest phase 1 and phase 2 insulin secretion.
# Pancreas elution fractions were collected in 96-well plates (via a catheter introduced into the portal vein) at regular time intervals and immediately cooled down to 4° C. and subsequently stored at −20° C. until analyzed. At least, 120 eluted fractions per rat were collected for measurement of glucose and insulin levels.
# [2] = test system: Zucker Diabetic Fatty (ZDF) rats; test: Oral glucose tolerance test (oGTT) after chronic treatment of ZDF rats; type: in vivo, rat
# Method: This study was conducted with male ZDF rats [ZDF/gmiCrl fa/fa] and lean rats [ZDF/gmiCrl fa/+] (Charles River Laboratories, Sulzfeld, Germany). The ZDF rats are a commonly used model of human type 2 diabetes characterized by insulin resistance, β-cell defects and hyperglycemia. Onset of diabetes in males is at the age of 8 to 10 weeks when fed a diabetogenic diet. All rats (ZDF and Lean rats) with an age of 6 weeks at the beginning of the experiment are fed a special diet (“PURINA PMI 5008”, ZDF_diet=Ssniff R/M−H) and housed 1 per cage (type 3). Ambient temperature is approximately 21° C. and relative humidity 55-65%. A 12 hours light-dark cycle is maintained in the rooms with all tests being performed during the light phase. Access to food and tap water is ad libitum.
# as §1
# An oGTT was conducted on day 18 of treatment. After on overnight fast of approximately 16 h post treatment, rats were given a glucose load of 2 g/kg by gavage. Blood samples were collected immediately prior to glucose challenge (0 min) and +10, +30, +60 and +120 min after glucose challenge and blood glucose and other plasma parameters were determined.
# Blood glucose was measured with a blood glucose monitoring system (Accu-Chek Aviva, Roche Diagnostics GmbH, Rotkreuz, Switzerland). Insulin was measured by ELISA, using the Mercodia Rat Insulin ELISA (Mercodia AB, Uppsala, Sweden).
# Data were analyzed using the software SAS/JMP for Windows (version 6.0.0, SAS Institute Inc., Cary, N.C.). Data were expressed as mean±SEM (standard error of the mean). The number of rats was 6 per group. Comparison was made versus Vehicle, using Analysis of Variance ANOVA followed by post hoc Dunnett's test.
smiles,measurement,setting,value
"C[C@@]1(c2cc(NC(=O)c3ccc(Cl)cn3)ccc2F)CCSC(N)=N1 (single isomer, unassigned) [Example 1]",full-length TMEM27 (immunoblot),[1],stabilized the full length of TMEM27; also recorded: preservation of full-length TMEM 27
same,AUC off-response of insulin secretion (perfused pancreas),"pancreas of ZDF rats; 30 mg/kg, 3 to 4 weeks of treatment, after high glucose 16.7 mM, versus vehicle",reduced
same,basal insulin secretion (perfused pancreas),"pancreas of ZDF rats; 30 mg/kg, 3 to 4 weeks of treatment, low glucose 2.8 mM, versus vehicle",reduced
same,insulin secretion profile (Phase 1/Phase 2),"pancreas of ZDF rats; ZDF rats, chronic treatment, in situ pancreas perfusion",normalized the insulin secretion profile (Phase 1/Phase 2)
same,Insulin AUC (0-120 minutes) during oGTT,"[2]; 8.5 week old ZDF rats treated 17 days, 0.2, 5, 30 mg/kg p.o.",dose-dependent increase in insulin levels without reaching significance
same,fasting insulin levels,"[2]; 8.5 week old ZDF rats treated 17 days, Example 1 p.o., Liraglutide 0.4 mg/kg s.c.",did not change fasting insulin levels compared to vehicle
same,insulin levels during oGTT (post glucose challenge),"[2]; 8.5 week old ZDF rats treated 17 days, glucose 2 g/kg, Example 1 0.2, 5, 30 mg/kg p.o., Liraglutide 0.4 mg/kg s.c.",increased insulin levels (at peak and up to 60 minutes post glucose challenge); also recorded: dose-dependent increase in insulin levels secreted during oGTT
same,fasting blood glucose (FBG) after overnight fasting,"[2]; 8.5 week old ZDF rats, Example 1 0.2-5-30 mg/kg p.o., Liraglutide 0.4 mg/kg s.c., 17 days",trend to reduce fasting blood glucose after overnight fasting conditions (FBG) without reaching significance
same,efficacy in oGTT compared with Liraglutide,"[2]; Example 1 30 mg/kg p.o. versus Liraglutide 0.4 mg/kg s.c., chronic treatment",close to that induced by chronic treatment with Liraglutide
same,post-challenged glucose levels,[2]; ZDF rats after 17 days of oral treatment (summary),reduced post-challenged glucose levels
same,improvement of glucose tolerance (blood glucose during oGTT),"[2]; ZDF rats, 30 mg/kg p.o. daily for 17 days, versus vehicle","reached significance at 30′, 60′ and 120′ post glucose challenge"
same,glucose area under the curve (AUC 0-120 minutes) during oGTT,"[2]; ZDF rats, 0.2, 5, 30 mg/kg p.o. daily for 17 days, oGTT day 18, versus vehicle",dose-dependently reduced; also recorded: dose dependent reduction of glucose AUC reaching significant values at 30 mg/kg
